Laboratory results taken from article PMC4796657, “Functional identification of SLC43A3 as an equilibrative nucleobase transporter involved in purine salvage in mammals” (Scientific Reports, 2015).

Tests used:
[1] = target: T1, SLC43A3 (equilibrative nucleobase transporter 1, ENBT1) (Homo sapiens, UniProt Q8NBI5); assay: inhibition of ENBT1-specific [3H]adenine uptake at […]; type: cell-based; set-up: full length, 491 amino acid residues, stably expressed in MDCKII cells
T1 sequence (Q8NBI5 1-491): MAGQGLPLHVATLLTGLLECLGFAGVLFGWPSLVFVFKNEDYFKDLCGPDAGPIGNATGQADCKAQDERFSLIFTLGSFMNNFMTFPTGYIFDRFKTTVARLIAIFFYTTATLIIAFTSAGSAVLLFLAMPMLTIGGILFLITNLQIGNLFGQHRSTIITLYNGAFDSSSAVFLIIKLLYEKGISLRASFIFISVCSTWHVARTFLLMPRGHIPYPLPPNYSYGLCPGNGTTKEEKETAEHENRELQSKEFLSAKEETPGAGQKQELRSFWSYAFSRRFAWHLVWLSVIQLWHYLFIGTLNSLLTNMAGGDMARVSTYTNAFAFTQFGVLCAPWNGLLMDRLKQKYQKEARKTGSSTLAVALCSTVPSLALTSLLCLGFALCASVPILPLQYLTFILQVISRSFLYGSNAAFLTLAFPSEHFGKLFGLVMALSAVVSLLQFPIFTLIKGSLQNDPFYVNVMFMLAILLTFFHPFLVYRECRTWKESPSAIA

[2] = target: T1, SLC43A3 (equilibrative nucleobase transporter 1, ENBT1); assay: cell-based; set-up: full length, 491 amino acid residues, stably expressed in MDCKII cells; species or system MDCKII stably expressing ENBT1; inhibition of ENBT1-specific [3H]adenine (5 nM) uptake, 40 s, 22 C, mock-subtracted, scintillation counting; conditions: MDCK-II; [3H]adenine 5 nM, pH 7.4, 22 C, 40 s; read-out: Uptake rate (% of control)
Experimental: MDCKII cells stably expressing ENBT1 (1.5 × 10^5 cells/well initially) were grown on 24-well plates for 72 h. The cells in each well were preincubated in 0.25 ml of substrate-free uptake buffer (140 mM NaCl, 5 mM KCl, 0.4 mM KH2PO4, 0.8 mM MgSO4, 1.0 mM CaCl2, 25 mM glucose, and 10 mM HEPES, pH 7.4) for 5 min, unless otherwise indicated. Uptake assays were started by replacing the substrate-free uptake buffer for preincubation with one containing the radioisotope-labeled substrate (0.25 ml). All of the procedures were conducted at 22 °C or 37 °C. Assays were stopped by addition of ice-cold substrate-free uptake buffer (2 ml), and the cells were washed two times with 2 ml of the same buffer. The cells were solubilized in 0.5 ml of 0.2 M NaOH solution containing 0.5% SDS at room temperature for 1 h, and the associated radioactivity was measured by [compound left out] scintillation counting. Cellular protein content was determined by the method of Lowry et al.[28] using bovine serum albumin as the standard. Uptake assays were also conducted in mock cells, which were transfected with empty pCI-neo vector, to estimate nonspecific uptake. To further explore the substrate specificity of ENBT1, we examined the effect of various compounds (10 μM for decynium-22 and 200 μM for the others) on the ENBT1-mediated uptake of [^3H]adenine in SLC43A3 cells (Fig. 2D). […] Because these two molecules were transported by SLC43A3 minimally (Fig. 2A), they are likely to be recognized as very poor substrates with affinities extremely low to act as competitive inhibitors. […] We also examined the effect of various amino acids (5 mM), as ENBT1 is a member of the amino acid transporter family; however, none of them affected the adenine uptake activity of SLC43A3 cells (see Supplementary Table S1 online), supporting a previo

[3] = target: T1, SLC43A3 (equilibrative nucleobase transporter 1, ENBT1); assay: inhibition of ENBT1-mediated [3H]hypoxanthine uptake; radiolabeled uptake (apparent Km […]); type: cell-based; set-up: full length, 491 amino acid residues, stably expressed in MDCKII cells
[4] = target: T1, SLC43A3 (equilibrative nucleobase transporter 1, ENBT1); assay: inhibition of ENBT1-mediated [3H]adenine uptake; radiolabeled uptake (apparent Km […]); type: cell-based; set-up: full length, 491 amino acid residues, stably expressed in MDCKII cells
[5] = target: T1, SLC43A3 (equilibrative nucleobase transporter 1, ENBT1); assay: cell-based
[6] = target: T1, SLC43A3 (equilibrative nucleobase transporter 1, ENBT1); assay: inhibition of ENBT1-specific [3H]adenine uptake, about […] at […]; type: cell-based; set-up: full length, 491 amino acid residues, stably expressed in MDCKII cells; conditions: read-out: % inhibition at 200 μM

Row | Compound | remaining activity at 5000 µM [2] | also measured
1 | Nc1nc2nc[nH]c2c(=S)[nH]1 [6-thioguanine] | – | inhibition of ENBT1-specific [3H]adenine uptake at 200 uM [1]: purine and its several analogs, such as 6-thioguanine and mercaptopurine, showed inhibitory activities, suggesting that they are also substrates
2 | NC(=O)C[C@H](N)C(=O)O [Asparagine] | 103 ± 2.7% | –
3 | N[C@@H](CCC(=O)O)C(=O)O [Glutamate] | 103 ± 1.6% | –
4 | NCCCC[C@H](N)C(=O)O [Lysine] | 96.6 ± 1.2% | –
5 | N[C@@H](Cc1ccccc1)C(=O)O [Phenylalanine] | 98.7 ± 1.1% | –
6 | O=C(O)[C@@H]1CCCN1 [Proline] | 103.4 ± 1% | –
7 | N[C@@H](CO)C(=O)O [Serine] | 105 ± 2.2% | –
8 | Nc1ncnc2nc[nH]c12 [adenine] | – | IC50 [3]: 13 µM
9 | Nc1nc2nc[nH]c2c(=O)[nH]1 [guanine] | – | IC50 [4]: 70 µM
10 | O=c1[nH]cnc2nc[nH]c12 [hypoxanthine] | – | IC50 [5]: 350 µM
11 | S=c1[nH]cnc2nc[nH]c12 [mercaptopurine] | – | inhibition of ENBT1-specific [3H]adenine uptake at 200 uM [1]: purine and its several analogs, such as 6-thioguanine and mercaptopurine, showed inhibitory activities, suggesting that they are also substrates
12 | O=[N+]([O-])c1ccc(CSc2ncnc3c2ncn3C2OC(CO)C(O)C2O)cc1 (centres unmarked) [nitrobenzylthioinosine] | – | inhibition at 200 µM [6]: ~40%
13 | c1ncc2nc[nH]c2n1 [purine] | – | inhibition of ENBT1-specific [3H]adenine uptake at 200 uM [1]: purine and its several analogs, such as 6-thioguanine and mercaptopurine, showed inhibitory activities, suggesting that they are also substrates

Second part, led by results:

Row | remaining activity at 5000 µM [2] | Compound | also measured
14 | 103 ± 4% | C[C@H](N)C(=O)O [Alanine] | –
15 | 95.8 ± 1.7% | N=C(N)NCCC[C@H](N)C(=O)O [Arginine] | –
16 | 99.9 ± 1.3% | N[C@@H](CC(=O)O)C(=O)O [Aspartate] | –
17 | 104 ± 0.8% | N[C@@H](CS)C(=O)O [Cysteine] | –
18 | 105 ± 1.3% | NC(=O)CC[C@H](N)C(=O)O [Glutamine] | –
19 | 101 ± 1.8% | N[C@@H](Cc1c[nH]cn1)C(=O)O [Histidine] | –
20 | 100 ± 1.3% | CC[C@H](C)[C@H](N)C(=O)O [Isoleucine] | –
21 | 94 ± 2.5% | CC(C)C[C@H](N)C(=O)O [Leucine] | –
22 | 95.8 ± 1.4% | CSCC[C@H](N)C(=O)O [Methionine] | –
23 | 99.7 ± 0.7% | C[C@@H](O)[C@H](N)C(=O)O [Threonine] | –
24 | 95.6 ± 1.8% | N[C@@H](Cc1c[nH]c2ccccc12)C(=O)O [Tryptophan] | –
25 | 105.7 ± 1% | N[C@@H](Cc1ccc(O)cc1)C(=O)O [Tyrosine] | –
26 | 101 ± 1.6% | CC(C)[C@H](N)C(=O)O [Valine] | –
